Experimental data taken from ChEMBL document CHEMBL4184149, “Discovery and process development of a novel TACE inhibitor for the topical treatment of psoriasis” (Bioorg Med Chem, 2018).
In brackets after ≈: the same amount, converted by molar mass.

How the values were obtained:
[1] = Photoirritancy factor, ratio of EC50 for human neonatal keratinocytes under dark condition to EC50 for human neonatal keratinocytes under 5 J/cm2 UV light exposure; format: toxicity; details: read-out: Ratio EC50
[2] = Solubility of the compound in propylene glycol/ethanol96 at 30 mg/ml after 24 hrs by UV-spectrometric analysis; format: physicochemical; details: propylene glycol/ethanol96
[3] = target: Voltage-gated inwardly rectifying potassium channel KCNH2 (Homo sapiens, UniProt Q12809); test: Inhibition of human ERG expressed in CHO-K1 cells assessed as reduction in tail current amplitude by patch clamp assay; format: cell-based
Voltage-gated inwardly rectifying potassium channel KCNH2, sequence (Q12809 whole entry): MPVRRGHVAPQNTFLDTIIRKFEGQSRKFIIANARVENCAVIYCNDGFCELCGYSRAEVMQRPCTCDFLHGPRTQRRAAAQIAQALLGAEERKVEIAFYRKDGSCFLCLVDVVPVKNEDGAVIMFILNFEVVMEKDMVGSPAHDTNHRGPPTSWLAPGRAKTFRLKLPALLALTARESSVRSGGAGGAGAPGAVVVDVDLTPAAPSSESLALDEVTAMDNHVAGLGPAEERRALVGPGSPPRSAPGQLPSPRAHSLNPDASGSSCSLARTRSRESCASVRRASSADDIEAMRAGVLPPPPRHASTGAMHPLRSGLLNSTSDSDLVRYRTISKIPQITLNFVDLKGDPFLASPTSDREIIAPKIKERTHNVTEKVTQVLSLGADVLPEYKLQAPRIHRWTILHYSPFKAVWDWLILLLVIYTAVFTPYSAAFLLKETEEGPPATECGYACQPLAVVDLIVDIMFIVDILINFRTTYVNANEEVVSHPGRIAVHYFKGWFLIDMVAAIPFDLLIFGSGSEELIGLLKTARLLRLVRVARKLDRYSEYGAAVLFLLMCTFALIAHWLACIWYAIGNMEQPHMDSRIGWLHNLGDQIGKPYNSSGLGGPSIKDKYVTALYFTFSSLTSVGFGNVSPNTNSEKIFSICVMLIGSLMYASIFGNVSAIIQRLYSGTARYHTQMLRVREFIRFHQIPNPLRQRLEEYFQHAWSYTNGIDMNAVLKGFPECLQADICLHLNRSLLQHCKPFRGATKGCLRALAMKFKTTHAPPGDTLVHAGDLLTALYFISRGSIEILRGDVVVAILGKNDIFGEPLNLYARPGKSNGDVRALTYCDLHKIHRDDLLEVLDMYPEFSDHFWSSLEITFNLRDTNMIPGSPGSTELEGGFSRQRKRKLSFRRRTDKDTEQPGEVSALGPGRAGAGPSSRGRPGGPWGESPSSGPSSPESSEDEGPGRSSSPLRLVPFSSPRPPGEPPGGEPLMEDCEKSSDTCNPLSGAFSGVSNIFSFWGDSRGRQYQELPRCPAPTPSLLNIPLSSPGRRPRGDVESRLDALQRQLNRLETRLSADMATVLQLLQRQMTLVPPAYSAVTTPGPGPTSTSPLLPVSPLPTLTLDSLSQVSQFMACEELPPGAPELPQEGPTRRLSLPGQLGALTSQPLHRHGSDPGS

[4] = Stability of the compound in propylene glycol/ethanol96 at 0.1 mg/ml measured up to 3 months by HPLC analysis; format: physicochemical; details: read-out: Stability
[5] = Fraction unbound in human plasma at 5 uM after 4 hrs by LC-MS/MS analysis; format: ADME, cell-free
Matrilysin = target: T1, Matrilysin (Homo sapiens, UniProt P09237); test: Inhibition of MMP7 (unknown origin)
T1 sequence (P09237 whole entry): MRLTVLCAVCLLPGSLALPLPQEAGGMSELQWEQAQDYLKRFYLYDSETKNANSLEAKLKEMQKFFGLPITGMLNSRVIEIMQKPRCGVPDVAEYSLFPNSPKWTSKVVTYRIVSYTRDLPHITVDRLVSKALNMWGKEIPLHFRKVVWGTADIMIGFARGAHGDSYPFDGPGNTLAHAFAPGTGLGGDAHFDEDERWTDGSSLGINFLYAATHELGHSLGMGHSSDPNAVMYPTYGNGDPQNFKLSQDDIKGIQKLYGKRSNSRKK

[6] = target: T2, Disintegrin and metalloproteinase domain-containing protein 17 (Homo sapiens, UniProt P78536); test: Inhibition of TACE in NHEK assessed as reduction in LPS/TPA-stimulated TNFalpha production preincubated for 1 hr followed by LPS/TPA stimulation for 24 hrs by HTRF assay
T2 sequence (P78536 whole entry, the tested form may be a part): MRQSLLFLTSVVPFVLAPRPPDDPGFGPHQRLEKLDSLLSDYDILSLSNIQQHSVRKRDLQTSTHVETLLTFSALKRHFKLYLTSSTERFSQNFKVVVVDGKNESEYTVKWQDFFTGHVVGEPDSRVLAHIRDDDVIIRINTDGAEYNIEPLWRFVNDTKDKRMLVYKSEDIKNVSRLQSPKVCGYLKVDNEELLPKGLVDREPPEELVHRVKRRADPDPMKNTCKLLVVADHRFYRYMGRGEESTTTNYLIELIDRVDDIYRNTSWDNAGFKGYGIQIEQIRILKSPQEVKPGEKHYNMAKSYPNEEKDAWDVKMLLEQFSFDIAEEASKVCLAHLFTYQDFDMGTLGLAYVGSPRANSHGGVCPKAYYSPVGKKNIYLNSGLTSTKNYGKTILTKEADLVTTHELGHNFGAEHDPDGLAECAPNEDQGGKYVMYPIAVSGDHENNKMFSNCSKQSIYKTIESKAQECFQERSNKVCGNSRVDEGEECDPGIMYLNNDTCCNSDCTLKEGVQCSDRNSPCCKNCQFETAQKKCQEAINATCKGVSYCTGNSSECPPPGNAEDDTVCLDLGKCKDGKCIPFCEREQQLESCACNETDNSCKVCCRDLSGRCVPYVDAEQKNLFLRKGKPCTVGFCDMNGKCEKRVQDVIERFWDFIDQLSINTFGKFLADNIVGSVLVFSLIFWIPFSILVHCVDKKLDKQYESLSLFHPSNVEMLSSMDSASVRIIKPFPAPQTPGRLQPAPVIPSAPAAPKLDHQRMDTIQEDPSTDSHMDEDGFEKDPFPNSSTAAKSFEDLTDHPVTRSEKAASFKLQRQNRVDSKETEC

Salmonella typhimurium [7] = test: Mutagenicity in Salmonella typhimurium TA100 in absence of rat S9 fraction by Ames test; format: toxicity, organism-based; details: salmonella enterica subsp. enterica serovar typhimurium
TK6 [8] = test: Genotoxicity in human TK6 cells in presence of rat S9 fraction by Giemsa staining based micronucleus assay; format: toxicity, cell-based
[9] = target: 72 kDa type IV collagenase (Homo sapiens, UniProt P08253); test: Inhibition of MMP2 (unknown origin)
72 kDa type IV collagenase, sequence (P08253 whole entry): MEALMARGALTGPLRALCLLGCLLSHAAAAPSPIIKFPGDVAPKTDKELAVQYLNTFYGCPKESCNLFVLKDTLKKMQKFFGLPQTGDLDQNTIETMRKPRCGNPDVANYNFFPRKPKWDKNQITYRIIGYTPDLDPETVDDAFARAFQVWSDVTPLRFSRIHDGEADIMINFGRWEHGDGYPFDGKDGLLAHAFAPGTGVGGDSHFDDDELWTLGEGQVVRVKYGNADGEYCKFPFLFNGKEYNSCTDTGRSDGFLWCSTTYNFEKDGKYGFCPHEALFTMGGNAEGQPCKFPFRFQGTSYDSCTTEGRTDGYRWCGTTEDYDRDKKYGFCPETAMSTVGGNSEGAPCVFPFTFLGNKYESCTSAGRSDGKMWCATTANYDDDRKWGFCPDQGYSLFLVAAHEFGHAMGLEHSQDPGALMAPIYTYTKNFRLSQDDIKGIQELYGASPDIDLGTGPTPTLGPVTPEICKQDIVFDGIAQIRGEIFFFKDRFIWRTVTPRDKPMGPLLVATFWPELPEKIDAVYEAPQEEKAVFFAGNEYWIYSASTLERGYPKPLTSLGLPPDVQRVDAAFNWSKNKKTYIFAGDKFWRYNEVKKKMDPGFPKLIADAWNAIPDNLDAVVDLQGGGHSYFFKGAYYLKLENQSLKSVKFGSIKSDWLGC

Salmonella typhimurium [10] = test: Mutagenicity in Salmonella typhimurium TA100 in presence of rat S9 fraction by Ames test; format: toxicity, organism-based; details: salmonella enterica subsp. enterica serovar typhimurium
[11] = target: Matrix metalloproteinase-14 (Homo sapiens, UniProt P50281); test: Inhibition of MMP14 (unknown origin)
[12] = target: T2, Disintegrin and metalloproteinase domain-containing protein 17; test: Inhibition of TACE in human PBMC assessed as reduction in LPS-induced TNFalpha production incubated overnight by HTRF assay; format: cell-based
Collagenase 3 = Collagenase 3 (Homo sapiens, UniProt P45452); test: Inhibition of MMP13 (unknown origin)
Salmonella typhimurium [13] = test: Mutagenicity in Salmonella typhimurium TA98 in presence of rat S9 fraction by Ames test; format: toxicity, organism-based; details: salmonella enterica subsp. enterica serovar typhimurium
[14] = target: Macrophage metalloelastase (Homo sapiens, UniProt P39900); test: Inhibition of MMP12 (unknown origin)
Macrophage metalloelastase, sequence (P39900 whole entry): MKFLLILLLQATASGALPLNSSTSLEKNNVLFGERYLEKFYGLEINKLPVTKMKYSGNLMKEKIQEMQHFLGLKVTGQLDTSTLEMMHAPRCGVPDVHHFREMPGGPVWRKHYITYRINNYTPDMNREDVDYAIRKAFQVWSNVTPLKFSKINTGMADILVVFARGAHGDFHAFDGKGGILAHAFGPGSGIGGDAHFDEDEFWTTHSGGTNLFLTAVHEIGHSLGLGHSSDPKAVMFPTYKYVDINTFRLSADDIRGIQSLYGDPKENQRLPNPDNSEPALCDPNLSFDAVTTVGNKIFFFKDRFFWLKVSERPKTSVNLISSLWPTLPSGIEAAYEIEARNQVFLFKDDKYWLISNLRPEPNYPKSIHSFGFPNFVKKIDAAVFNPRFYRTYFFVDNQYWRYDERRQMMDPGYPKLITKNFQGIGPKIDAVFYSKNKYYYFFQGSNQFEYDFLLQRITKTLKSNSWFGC

[15] = target: Matrix metalloproteinase-9 (Homo sapiens, UniProt P14780); test: Inhibition of MMP9 (unknown origin)
Matrix metalloproteinase-9, sequence (P14780 whole entry): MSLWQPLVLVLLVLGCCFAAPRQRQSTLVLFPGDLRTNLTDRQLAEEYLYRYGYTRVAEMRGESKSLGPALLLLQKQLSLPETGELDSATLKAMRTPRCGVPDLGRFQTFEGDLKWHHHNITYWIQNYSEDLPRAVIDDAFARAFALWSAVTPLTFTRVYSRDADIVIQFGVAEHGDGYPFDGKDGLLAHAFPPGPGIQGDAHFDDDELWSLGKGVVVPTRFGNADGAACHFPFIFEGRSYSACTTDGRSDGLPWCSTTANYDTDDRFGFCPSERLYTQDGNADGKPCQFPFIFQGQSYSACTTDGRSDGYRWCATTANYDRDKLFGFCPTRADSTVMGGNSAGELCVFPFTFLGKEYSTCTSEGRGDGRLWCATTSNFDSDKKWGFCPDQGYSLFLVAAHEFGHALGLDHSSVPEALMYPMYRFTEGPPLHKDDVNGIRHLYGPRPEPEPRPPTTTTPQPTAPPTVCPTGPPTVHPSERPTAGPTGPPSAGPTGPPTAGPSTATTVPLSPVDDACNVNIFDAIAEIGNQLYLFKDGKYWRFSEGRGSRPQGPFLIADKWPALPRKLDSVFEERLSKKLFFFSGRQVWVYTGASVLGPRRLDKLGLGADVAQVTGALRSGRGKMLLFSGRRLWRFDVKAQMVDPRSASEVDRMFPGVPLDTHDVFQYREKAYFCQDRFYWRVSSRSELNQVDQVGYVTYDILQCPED

Stromelysin-1 = Stromelysin-1 (Homo sapiens, UniProt P08254); test: Inhibition of MMP3 (unknown origin)
Stromelysin-1, sequence (P08254 whole entry): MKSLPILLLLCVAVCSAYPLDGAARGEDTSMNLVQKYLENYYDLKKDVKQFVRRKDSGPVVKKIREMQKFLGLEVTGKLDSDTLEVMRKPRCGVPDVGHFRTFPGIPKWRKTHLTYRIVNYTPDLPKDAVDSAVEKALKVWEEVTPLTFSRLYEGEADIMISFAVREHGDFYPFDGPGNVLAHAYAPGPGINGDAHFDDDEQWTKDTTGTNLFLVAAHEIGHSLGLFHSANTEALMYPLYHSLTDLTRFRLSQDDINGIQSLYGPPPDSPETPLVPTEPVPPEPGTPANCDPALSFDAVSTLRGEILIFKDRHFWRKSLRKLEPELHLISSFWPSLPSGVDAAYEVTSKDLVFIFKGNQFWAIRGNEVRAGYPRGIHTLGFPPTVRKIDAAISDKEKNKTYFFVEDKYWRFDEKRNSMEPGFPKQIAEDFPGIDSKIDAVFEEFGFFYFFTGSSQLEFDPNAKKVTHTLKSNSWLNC

TK6 [16] = test: Genotoxicity in p53-competent human TK6 cells in presence of Sprague-Dawley rat S9 fraction by GADD45alpha GFP reporter assay; format: toxicity, cell-based
[17] = target: T2, Disintegrin and metalloproteinase domain-containing protein 17; test: Inhibition of recombinant human TACE catalytic domain using Mca-Pro-Leu-Ala-Gln-Ala-Val-Dpa-Arg-Ser-Ser-Ser-Arg-NH2 as substrate after 2 hrs by fluorescence assay
TK6 [18] = test: Genotoxicity in human TK6 cells in absence of rat S9 fraction by Giemsa staining based micronucleus assay; format: toxicity, cell-based
Interstitial collagenase = target: T3, Interstitial collagenase (Homo sapiens, UniProt P03956); test: Inhibition of recombinant human MMP1 catalytic domain using Mca-Pro-Leu-Gly-Leu-Dpa-Ala-Arg-NH2 as substrate after 10 mins by fluorescence assay
T3 sequence (P03956 whole entry): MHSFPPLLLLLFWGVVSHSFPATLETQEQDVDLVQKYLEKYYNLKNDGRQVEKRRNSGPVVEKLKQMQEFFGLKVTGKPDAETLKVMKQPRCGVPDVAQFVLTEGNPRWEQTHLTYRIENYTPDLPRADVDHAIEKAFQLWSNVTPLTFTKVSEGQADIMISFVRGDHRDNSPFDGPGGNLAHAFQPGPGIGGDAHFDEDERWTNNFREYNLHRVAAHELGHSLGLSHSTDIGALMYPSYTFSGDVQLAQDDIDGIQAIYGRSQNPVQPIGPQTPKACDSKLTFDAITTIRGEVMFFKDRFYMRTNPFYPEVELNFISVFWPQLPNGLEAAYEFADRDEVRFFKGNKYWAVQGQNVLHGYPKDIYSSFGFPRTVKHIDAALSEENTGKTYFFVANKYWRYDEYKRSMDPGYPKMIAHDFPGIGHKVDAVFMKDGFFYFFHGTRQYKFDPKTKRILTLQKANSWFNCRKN

TK6 [19] = test: Genotoxicity in p53-competent human TK6 cells in absence of Sprague-Dawley rat S9 fraction by GADD45alpha GFP reporter assay; format: toxicity, cell-based
[20] = target: T4, Disintegrin and metalloproteinase domain-containing protein 9 (Homo sapiens, UniProt Q13443); test: Inhibition of ADAM9 (unknown origin)
T4 sequence (Q13443 whole entry): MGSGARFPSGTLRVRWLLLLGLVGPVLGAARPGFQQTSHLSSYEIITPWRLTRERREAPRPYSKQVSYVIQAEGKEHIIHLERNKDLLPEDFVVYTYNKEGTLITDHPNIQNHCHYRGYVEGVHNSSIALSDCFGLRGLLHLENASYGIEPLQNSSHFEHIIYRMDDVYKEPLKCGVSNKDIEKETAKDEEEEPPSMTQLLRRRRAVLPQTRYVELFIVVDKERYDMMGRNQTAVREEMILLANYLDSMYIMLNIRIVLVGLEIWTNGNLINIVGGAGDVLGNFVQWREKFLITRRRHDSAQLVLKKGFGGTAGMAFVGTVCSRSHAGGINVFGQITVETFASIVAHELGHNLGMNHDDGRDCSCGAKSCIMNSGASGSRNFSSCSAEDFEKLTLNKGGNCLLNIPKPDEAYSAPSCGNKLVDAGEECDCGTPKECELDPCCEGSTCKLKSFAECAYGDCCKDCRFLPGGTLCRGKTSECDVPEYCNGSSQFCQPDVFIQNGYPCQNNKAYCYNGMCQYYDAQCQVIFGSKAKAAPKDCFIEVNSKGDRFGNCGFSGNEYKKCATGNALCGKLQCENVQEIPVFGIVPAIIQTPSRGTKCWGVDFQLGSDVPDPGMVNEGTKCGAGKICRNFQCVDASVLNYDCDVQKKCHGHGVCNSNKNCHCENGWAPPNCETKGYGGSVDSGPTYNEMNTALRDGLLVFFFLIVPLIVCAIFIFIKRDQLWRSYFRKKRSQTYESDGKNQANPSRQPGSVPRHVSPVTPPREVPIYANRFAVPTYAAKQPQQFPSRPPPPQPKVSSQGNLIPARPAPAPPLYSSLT

solubility at 24 h [2] [mM] | remaining at 0.1 mg/ml [4] [%] | fraction unbound at 4 h, 5 µM [5] | IC50 (Matrilysin) [nM] | IC50 [6] [nM] | IC50 [9] [nM] | IC50 [11] [nM] | IC50 [12] [nM] | IC50 (Collagenase 3) [nM] | IC50 [14] [nM] | IC50 [15] [nM] | IC50 (Stromelysin-1) [nM] | IC50 [17] [nM] | SMILES | selectivity ratio [1] | IC50 [3] [nM] | Activity (Salmonella typhimurium [7]) | Activity (TK6 [8]) | Activity (Salmonella typhimurium [10]) | Activity (Salmonella typhimurium [13]) | Activity (TK6 [16]) | also measured
45 (≈ 24.3 mg/mL) | 99 | 0.003 | 210 | 20 | 1000 | 4400 | 33 | 1200 | 6 | 2200 | 90 | 7 | Cc1cc(COc2ccc(S(=O)(=O)N(C)C3(C(=O)NO)CN(C(=O)CC(C)C)C3)cc2)c2ccccc2n1 | 1 | > 100000 | Non-Toxic | Non-Toxic | Non-Toxic | Non-Toxic | Non-Toxic | Activity (TK6 [18]): Non-Toxic; IC50 (Interstitial collagenase): 4600 nM; Activity (TK6 [19]): Non-Toxic; IC50 [20]: 480 nM
56 to 57 (≈ 29.5 to 30 mg/mL) | 99 | 0.019 | 180 | 3 | 890 | 6500 | 9 | 1300 | 13 | 2100 | 90 | 4 | Cc1cc(COc2ccc(S(=O)(=O)N(C)C3(C(=O)NO)CN(C(=O)C(C)C)C3)cc2)c2ccccc2n1 | 1 | > 100000 | Non-Toxic | Non-Toxic | Non-Toxic | Non-Toxic | Non-Toxic | Activity (TK6 [18]): Non-Toxic; IC50 (Interstitial collagenase): 4500 nM; Activity (TK6 [19]): Non-Toxic; IC50 [20]: 90 nM
